Measurements taken from patent publication US3998808A, “Compositions of matter D-hetero-1,1-(α-thiocyanoacetyl) compounds” (Velsicol Chemical Corporation, priority 1971, dated 1976).
Read-outs that look alike come from different tables or passages of the source.

Assays:
Format in all cases: in vivo
[1] = system: housefly (Musca domestica); experiment: housefly knockdown test; settings: sprayed with formulation containing 3500 ppm; knockdown after 30 minutes, in comparison to a control
Experimental: In one experiment, designated as the housefly knockdown test, 50, 3-day-old, unsexed, adult houseflies were anesthetized with carbon dioxide gas and placed into a fine mesh wire cage. The flies were allowed to recover completely from the effects of the carbon dioxide gas and were then sprayed with a test formulation containing 3500 ppm of the test compound. After 30 minutes the knockdown value of the test compound was determined. Knockdown is considered as an individual fly that is unable to move its body length, and the knowndown value is given as a percent of down flies based on the number of down flies in comparison to a control.

[2] = system: housefly (Musca domestica); experiment: housefly topical test; settings: read-out: % Control Housefly Topical Test
Experimental: In another experiment designated as the housefly topical test, each of fifty flies was contacted with a test compound by applying […] of test formulation containing 3500 ppm of active chemical to the dorsum of its thorax. The flies were then placed in a wire mesh cage where they were supplied with sugar syrup. At the end of a 24 hour period the mortality of the flies was observed and rated in comparison to a control.

[3] = system: pea aphid (Acyrthosiphon pisum); experiment: whole plant or invertebrate; settings: sprayed at 3500 ppm, aqueous emulsion of an acetone solution, 48 hours, in comparison to a control, read-out: mortality of the pea aphids
Text: The insecticidal activity of the compounds of this invention was further illustrated in an experiment for the control of the pea aphid (Acyrthosiphon pisum). In this experiment a ten day old Laxton pea plant contained in a small plastic pot was infested with ten adult pea aphids. The plant and pea aphids were then sprayed with the test compound formulated as an aqueous emulsion of an acetone solution, at a concentration of 3500 ppm. The infested plants were then placed in a holding chamber maintained at a constant temperature for a period of 48 hours. After this time the mortality of the aphids was determined and rated on a percent basis in comparison to a control. In this experiment the compounds 1-(α-thiocyanoacetyl) pyrrolidine and 1-(α-thiocyanoacetyl)-2,6-dimethylpiperidine gave 100% mortality of the pea aphids.

[4] = system: leaf rust of wheat (Puccinia rubigo-vera); experiment: protection of wheat against leaf rust of wheat; settings: wheat plants sprayed with 1000 ppm solutions before inoculation; about 8 days in greenhouse; in comparison with untreated controls
Experimental: In one experiment carried out for the protection of wheat against leaf rust of wheat (Puccinia rubigo-vera), 6 day old wheat plants were sprayed with 1000 ppm solutions of the test compounds. After the spray film had dried, the plants were inoculated by shaking a 9 to 13 day old leaf rust of wheat culture over the foliage. Immediately after inoculation the plants were placed in a 20° C. moist chamber overnight. The plants were then transferred to a greenhouse and kept there for a period of about 8 days. After this time the extent of the disease was observed and rated in comparison with untreated controls.

[5] = 1 ml of formulation containing 3500 ppm applied to dorsum of thorax, mortality after 24 hours, in comparison to a control

Compound | % Control Housefly Knockdown Test [1] [%] | mortality at 3500 µg/mL [2, 5] [%] | mortality at 3500 µg/mL ([2]; 24 h) [%] | mortality at 3500 ppm [3] [%] | % Control (leaf rust of wheat) [4] [%]
N#CSCC(=O)N1CCCCCC1 [1-(α-thiocyanoacetyl) hexamethylenimine] | 94 | 31 | – | – | –
CC1CCC(C)N1C(=O)CSC#N (stereo not drawn) [1-(α-thiocyanoacetyl)-2,5-dimethylpyrrolidine] | 100 | 100 | – | – | –
CC1CCCC(C)N1C(=O)CSC#N (stereo not drawn) [1-(α-thiocyanoacetyl)-2,6-dimethylpiperidine] | 92 | – | 94 | 100 | 96
CC1CCCN(C(=O)CSC#N)C1 (stereo not drawn) [1-(α-thiocyanoacetyl)-3-pipecoline] | 100 | 100 | – | – | 90
CC1CCN(C(=O)CSC#N)CC1 [1-(α-thiocyanoacetyl)-4-pipecoline] | 100 | 100 | – | – | 99
N#CSCC(=O)N1CCCC1 [1-(γ-Thiocyanoacetyl) pyrrolidine, 1-(α-thiocyanoacetyl) pyrrolidine] | – | – | – | 100 | 98
